Data as given in patent US20230406855A1, “N-1 BRANCHED IMIDAZOQUINOLINES, CONJUGATES THEREOF, AND METHODS” (3M INNOVATIVE PROPERTIES COMPANY, priority 2020, published 2023).

How the values were obtained:
[1] = system: LHRH receptor expressing tumor cells; details: free Dox relative to LHRH-conjugated Dox; cited from earlier work
human TLR8 = biological target: T1, human TLR8 (Homo sapiens, UniProt Q9NR97); experiment: TLR activation and specificity, HEK-BLUE-hTLR8 SEAP reporter cells; format: cell-based; details: 16-20 hours, lowest concentration giving SEAP response at least 2x vehicle control, tested 0.01-30 micromolar
T1 construct: host or cells: HEK293 (HEK-BLUE-hTLR8)
T1 sequence (Q9NR97 27-1041): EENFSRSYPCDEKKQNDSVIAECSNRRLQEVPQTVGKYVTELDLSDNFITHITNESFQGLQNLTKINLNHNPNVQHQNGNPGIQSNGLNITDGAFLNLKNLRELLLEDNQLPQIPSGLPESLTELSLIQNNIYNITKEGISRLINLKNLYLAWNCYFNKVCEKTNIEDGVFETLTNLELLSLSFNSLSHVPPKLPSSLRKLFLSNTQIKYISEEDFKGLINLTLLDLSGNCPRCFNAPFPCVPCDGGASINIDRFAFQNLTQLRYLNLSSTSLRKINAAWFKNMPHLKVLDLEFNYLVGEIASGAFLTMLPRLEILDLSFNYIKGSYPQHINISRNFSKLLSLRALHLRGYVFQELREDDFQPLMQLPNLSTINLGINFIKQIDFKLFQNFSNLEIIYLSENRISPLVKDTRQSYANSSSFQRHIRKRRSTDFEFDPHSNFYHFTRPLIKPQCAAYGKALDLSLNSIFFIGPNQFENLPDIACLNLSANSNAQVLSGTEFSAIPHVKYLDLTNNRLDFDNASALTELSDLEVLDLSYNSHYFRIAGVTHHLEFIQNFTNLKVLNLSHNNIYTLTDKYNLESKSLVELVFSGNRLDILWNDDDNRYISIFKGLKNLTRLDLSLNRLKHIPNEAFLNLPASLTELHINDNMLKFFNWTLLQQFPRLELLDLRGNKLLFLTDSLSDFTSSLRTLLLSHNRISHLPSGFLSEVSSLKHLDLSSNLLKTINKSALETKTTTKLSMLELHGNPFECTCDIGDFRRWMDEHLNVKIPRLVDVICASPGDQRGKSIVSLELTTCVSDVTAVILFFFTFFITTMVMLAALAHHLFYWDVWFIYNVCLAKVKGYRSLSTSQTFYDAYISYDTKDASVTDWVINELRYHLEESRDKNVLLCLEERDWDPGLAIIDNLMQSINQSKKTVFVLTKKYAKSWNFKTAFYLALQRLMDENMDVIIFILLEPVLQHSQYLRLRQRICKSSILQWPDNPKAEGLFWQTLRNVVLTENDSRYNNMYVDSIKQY
Description: (§1) HEK-BLUE-hTLR7 or hTLR8 reporter cells were obtained from InvivoGen, San Diego, CA. According to the manufacturer's description, these reporter cells were prepared by co-transfection of HEK293 cells with an inducible secreted embryonic alkaline phosphatase (SEAP) reporter gene and either the human TLR7 or TLR8 gene. The SEAP reporter gene was placed under the control of an IFN-β minimal promoter fused to five NF-κB and AP-1-binding sites. In the presence of a TLR ligand, activation of NF-κB and AP-1 occurs, resulting in a corresponding increase in SEAP levels. […]
(§2) For each compound, hTLR7, hTLR8, and their respective null control HEK cells were screened. […] Cell culture supernatants containing the SEAP reporter were collected after an incubation period of 16-20 hours in a cell culture incubator (37° C. and 5% CO2), and either analyzed immediately or stored at −80° C. SEAP levels were measured using the colorimetric enzyme assay (QUANTI-BLUE (InvivoGen) according to manufacturer's instructions.
(§3) Specifically, the minimum effective concentration of each compound (micromolar) was determined as the lowest concentration of the compound that produced a SEAP expression response at least 2× greater than that observed with the vehicle control wells.

[2] = system: Human peripheral blood mononuclear cells (PBMC); experiment: Cytokine induction in human cells (PBMC), Ella Simple Plex ELISA; format: cell-based; details: 21-24 hours, lowest concentration giving cytokine at least 2x negative control, tested 0.01-30 micromolar
Description: Whole blood was obtained from healthy human donors and collected by venipuncture into vacutainer tubes or syringes containing EDTA. Human peripheral blood mononuclear cells (PBMC) were purified from the whole blood by density gradient centrifugation. Histopaque 1077 (15 mL, Sigma, St. Louis, MO) was transferred to 6×50 mL sterile polypropylene conical tubes. The Histopaque was overlayed with 15-25 mL of blood diluted 1:2 in Hank's Balanced Salts Solution (HBSS) (Gibco, Life Technologies, Grand Island, NY). The tubes were then centrifuged at 1370 rpm for 30 minutes at 20° C., with no brake (400×g, GH 3.8 A Rotor).
The interface (buffy coat) containing the PBMC was collected and placed in a new sterile 50 mL conical polypropylene centrifuge tube. The PBMC were mixed with an equal volume of HBSS (about 20 mL from the interface and about 20 mL of HBSS), and then centrifuged at 1090 rpm, 10 minutes, 20° C., with brake (270×g, GH 3.8 A Rotor). After completing centrifugation, the cells were resuspended in 2-3 mL ACK Red blood cell lysis buffer (ammonium chloride potassium solution, Gibco, Life Technologies) and incubated for 2-5 minutes at 20° C. Next, HBSS (40 mL) was added to the cells, and the sample was centrifuged at 270×g for 10 minutes at 20° C. The supernatant was decanted, and the cell pellet was resuspended in 5 mL AIM V Medium (Gibco, Life Technologies). Cell aggregates and debris were removed by filtering the cell solution through a BD Falcon 70 micron nylon cell strainer (BD Biosciences, San Jose, CA).
The number of viable cells was determined by counting with a Moxi Z instrument (ORFLO Technologies, Ketchum, ID) or by using a hemacytometer. For determining cell viability with a hemacytometer, the cells were diluted 1/10 in 0.4% trypan blue and HBSS (specifically, 50 microliter of trypan blue+40 microliter of HBSS+10 microliter of cell solution were added to a microfuge tube and mixed). Ten microliters of the diluted cells were then applied to the hemacytometer, and the number of viable PBMC were determined by microscopy.
The PBMC sample was then resuspended in 96-well plates at a concentration of 8×10^5 cells/well in 0.1 mL of AIM-V medium. Each compound was solubilized in dimethyl sulfoxide (DMSO) to create a 3 mM stock solution. The stock solution was then further diluted with AIM-V medium to prepare the serial dilutions. The diluted compound (100 microliters) was then transferred to the PBMCs to produce testing sets with final compound concentrations of 30, 10, 3.3, 1.1, 0.37, 0.12, 0.04, 0.01 micromolar. The plates also had both positive and negative controls. The negative control wells contained only AIM-V medium with no example compound. The positive control wells contained a control set of imiquimod serially diluted to concentrations of 30, 10, 3.3, 1.1, 0.37, 0.12, 0.04, 0.01 micromolar. The concentrations used in the control set were selected to match the concentrations used in the testing set. The plates were then cultured at 37° C./5% CO2 for 21-24 hours. Cell-free supernatants were harvested by centrifuging the 96-well plates at 2100 rpm, 23° C. for 10 minutes. Approximately 160 microliters of the supernatant was then stored in a NUNC 96-well plate, covered with the compression cap and stored at −80° C. until the cytokine analysis was done.
Cytokine levels (human IFN-alpha multisubtype, human IFN-gamma, and human TNF-alpha) were measured in picograms/mL by Ella Simple Plex ELISA (ProteinSimple, San Jose, CA) according to the manufacturer's instructions.
Specifically, the minimum effective concentration of each compound (micromolar) was determined as the lowest concentration of the compound that induced a measured cytokine response at a level ([…]) that was at least 2× greater than that observed with the negative control wells.

human TLR7 = biological target: T2, human TLR7 (Homo sapiens, UniProt Q9NYK1); experiment: TLR activation and specificity, HEK-BLUE-hTLR7 SEAP reporter cells; format: cell-based; details: 16-20 hours, lowest concentration giving SEAP response at least 2x vehicle control, tested 0.01-30 micromolar
T2 construct: host or cells: HEK293 (HEK-BLUE-hTLR7)
T2 sequence (Q9NYK1 27-1049): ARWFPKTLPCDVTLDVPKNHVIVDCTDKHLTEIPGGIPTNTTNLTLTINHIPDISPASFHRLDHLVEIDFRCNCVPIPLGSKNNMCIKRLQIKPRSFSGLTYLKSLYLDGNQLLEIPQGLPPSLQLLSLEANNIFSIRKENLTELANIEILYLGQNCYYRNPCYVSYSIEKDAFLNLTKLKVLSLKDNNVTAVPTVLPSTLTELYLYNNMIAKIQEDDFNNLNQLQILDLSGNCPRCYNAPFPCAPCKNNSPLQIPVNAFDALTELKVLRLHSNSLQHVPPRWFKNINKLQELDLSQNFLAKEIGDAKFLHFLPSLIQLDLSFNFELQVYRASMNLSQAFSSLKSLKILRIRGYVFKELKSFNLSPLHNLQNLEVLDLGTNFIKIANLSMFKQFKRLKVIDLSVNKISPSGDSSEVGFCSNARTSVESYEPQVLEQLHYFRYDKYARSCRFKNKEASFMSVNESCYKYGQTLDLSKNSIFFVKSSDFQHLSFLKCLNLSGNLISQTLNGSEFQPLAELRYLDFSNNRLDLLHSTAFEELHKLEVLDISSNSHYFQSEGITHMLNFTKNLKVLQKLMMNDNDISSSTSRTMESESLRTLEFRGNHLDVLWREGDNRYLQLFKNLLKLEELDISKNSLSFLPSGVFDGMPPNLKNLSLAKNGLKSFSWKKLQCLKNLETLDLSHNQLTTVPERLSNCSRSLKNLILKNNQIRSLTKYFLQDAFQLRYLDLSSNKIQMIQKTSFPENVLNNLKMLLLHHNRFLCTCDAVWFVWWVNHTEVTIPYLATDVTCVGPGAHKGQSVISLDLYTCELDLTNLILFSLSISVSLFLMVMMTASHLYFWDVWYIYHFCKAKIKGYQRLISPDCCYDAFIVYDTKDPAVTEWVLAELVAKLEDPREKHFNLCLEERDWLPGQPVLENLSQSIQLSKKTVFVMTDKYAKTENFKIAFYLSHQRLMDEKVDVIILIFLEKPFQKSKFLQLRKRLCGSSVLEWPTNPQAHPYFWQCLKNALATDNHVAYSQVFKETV
Description: as §1, §2, §3

Structure (SMILES)	amount of free Dox required for antitumor activity equal to the LHRH conjugate [1]	MEC to Produce TLR Activation, TLR 8 (human TLR8) [µM]	MEC to Induce Cytokine IFN-alpha [2] [µM]	MEC to Induce Cytokine IFN-gamma [2] [µM]	MEC to Induce Cytokine TNF-alpha [2] [µM]	MEC to Produce TLR Activation, TLR 7 (human TLR7) [µM]
C[C@@H]1C[C@H]2[C@@H]3CCC4=CC(=O)C=C[C@]4(C)C3=CC[C@]2(C)[C@H]1C(=O)CN1CCN(c2cc(N3CCCC3)nc(N3CCCC3)n2)CC1 [Dox]	approximately 200 times	–	–	–	–	–
C#CCOc1ccc(C[C@@H](COCC)n2cnc3c(N)nc4ccccc4c32)cc1 [Example 1, (S)-1-(1-ethoxy-3-(4-(prop-2-yn-1-yloxy)phenyl)propan-2-yl)-1H-imidazo[4,5-c]quinolin-4-amine]	–	10	≤0.01	≤0.01	≤0.01	≤0.01
CCOC[C@H](Cc1ccc(OCc2cn(Cc3ccccc3)nn2)cc1)n1cnc2c(N)nc3ccccc3c21 [Example 2, (S)-1-(1-(4-((1-benzyl-1H-1,2,3-triazol-4-yl)methoxy)phenyl)-3-ethoxypropan-2-yl)-1H-imidazo[4,5-c]quinolin-4-amine]	–	3.3	≤0.01	≤0.01	≤0.01	≤0.01
